Values quoted from earlier work in PMC8815272 (The Journal of Supercritical Fluids, 2022).
Counter-ions that a name gives are not always drawn. Like-named read-outs stand apart in the source and are kept apart here.

Conditions: cited from earlier work
[1] = SC-CO2, 12–30 MPa, 313.2–343.2 K
[2] = SC-CO2, 12–33 MPa, 308.15–338.15 K
[3] = SC-CO2, 12.16–35.46 MPa, 308–348 K
[4] = SC-CO2, 12.2–35.5 MPa, 308–348 K
[5] = SC-CO2, 18.3–33.5 MPa, 308–328 K
[6] = SC-CO2, 15.5–30.5 MPa, 315–345 K
[7] = SC-CO2, 9–25 MPa, 308.2–328.2 K
[8] = SC-CO2, 12–27 MPa, 308.2–338.2 K
[9] = SC-CO2, 10–26 MPa, 308.2–328.2 K
[10] = SC-CO2, 9.2–24.4 MPa, 308.2–328.2 K
[11] = SC-CO2, 12–30 MPa, 308.2–338.2 K
[12] = SC-CO2, 12–27 MPa, 308.15–338.15 K
[13] = SC-CO2, 14.9–25.5 MPa, 303–323 K
[14] = SC-CO2, 10–30.3 MPa, 308.2–328.2 K

SMILES: CC(C)N1c2ccccc2C(C)(C)C12C=Nc1c(cc(N3CCc4ccccc43)c3ccccc13)O2 (stereo not drawn) [1,3-dihydro-3,3-dimethyl-1-isopropyl-6-(2,3)-(dihydroindole-1-yl)spiro[2 H-indole-2,3 − 3 H-naphtho[2,1-b][1,4]oxazine]]
- Crossover (MPa) (SC-CO2, 10–26 MPa, 308–328 K): 17 MPa
- Mole fraction (y) (SC-CO2, 10–26 MPa, 308–328 K): 2.2 × 10^-7 to 5.05 × 10^-6

SMILES: CCCCc1oc2ccccc2c1C(=O)c1cc(I)c(OCCN(CC)CC)c(I)c1 [Amiodarone hydrochloride]
- Crossover (MPa) [1]: 19 MPa
- Mole fraction (y) [1]: 2.510 × 10^−5 to 1.012 × 10^−3

SMILES: C[C@@H](O[C@H]1OCCN(Cc2n[nH]c(=O)[nH]2)[C@H]1c1ccc(F)cc1)c1cc(C(F)(F)F)cc(C(F)(F)F)c1 [Aprepitant]
- Crossover (MPa) [2]: 15–18 MPa
- Mole fraction (y) [2]: 4.50 × 10^−6 to 7.67 × 10^−5

SMILES: C[C@@H]1CC[C@H]2[C@@H](C)C(=O)O[C@@H]3O[C@@]4(C)CC[C@@H]1[C@]32OO4 [Artemisinin]
- Crossover (MPa) (SC-CO2, 10–25 MPa, 303–328 K): 13–17 MPa
- Mole fraction (y) (SC-CO2, 10–25 MPa, 303–328 K): 10^-4 to 10^-3

SMILES: CC(C)c1c(C(=O)Nc2ccccc2)c(-c2ccccc2)c(-c2ccc(F)cc2)n1CC[C@@H](O)C[C@@H](O)CC(=O)O [Atorvastatin]
- Crossover (MPa) [3]: 17 MPa
- Mole fraction (y) [3]: 1.12 × 10^−6 to 1.45 × 10^−3

SMILES: Cn1cnc([N+](=O)[O-])c1Sc1ncnc2nc[nH]c12 [Azathioprine]
- Crossover (MPa) (SC-CO2, 12–27 MPa, 308–338 K): 12–15 MPa
- Mole fraction (y) (SC-CO2, 12–27 MPa, 308–338 K): 0.27 × 10^−5 to 1.83 × 10^−5

SMILES: CC[C@H]1OC(=O)[C@H](C)[C@@H](O[C@H]2C[C@@](C)(OC)[C@@H](O)[C@H](C)O2)[C@H](C)[C@@H](O[C@@H]2O[C@H](C)C[C@H](N(C)C)[C@H]2O)[C@](C)(O)C[C@@H](C)CN(C)[C@H](C)[C@@H](O)[C@]1(C)O [Azithromycin]
- Crossover (MPa) [4]: 13.8–14 MPa
- Mole fraction (y) [4]: 6.9 × 10^−5 to 2.73 × 10^−4

SMILES: CS(=O)(=O)OCCCCOS(C)(=O)=O [Busulfan]
- Crossover (MPa) (SC-CO2, 12–40 MPa, 308–338 K): 16 MPa

SMILES: C=CC1=C(C(=O)O)N2C(=O)[C@@H](NC(=O)/C(=N\OCC(=O)O)c3csc(N)n3)[C@H]2SC1 [Cefixime trihydrate]
- Mole fraction (y) [5]: 1.6 × 10^−7 to 3.02 × 10^−7

SMILES: CC[C@H]1OC(=O)[C@H](C)[C@@H](O[C@H]2C[C@@](C)(OC)[C@@H](O)[C@H](C)O2)[C@H](C)[C@@H](O[C@@H]2O[C@H](C)C[C@H](N(C)C)[C@H]2O)[C@](C)(OC)C[C@@H](C)C(=O)[C@H](C)[C@@H](O)[C@]1(C)O [Clarithromycin]
- Crossover (MPa) [4]: 15–15.2 MPa
- Mole fraction (y) [4]: 1.31 × 10^−4 to 3.28 × 10^−4

SMILES: CCC[C@@H]1C[C@@H](C(=O)N[C@@H]([C@H]2O[C@H](SC)[C@H](O)[C@@H](O)[C@H]2O)[C@H](C)Cl)N(C)C1 [Clindamycin]
- Crossover (MPa) [4]: 14.8–15.2 MPa
- Mole fraction (y) [4]: 1.77 × 10^−4 to 1.146 × 10^−3

SMILES: CCC(=O)O[C@]1(C(=O)CCl)[C@@H](C)C[C@H]2[C@@H]3CCC4=CC(=O)C=C[C@]4(C)[C@@]3(F)[C@@H](O)C[C@@]21C [Clobetasol Propionate]
- Crossover (MPa) [6]: 24.5 MPa
- Mole fraction (y) [6]: 1 × 10^−6 to 2.1 × 10^−5

SMILES: CCN(CC)c1ccc2cc(-c3nc4ccccc4[nH]3)c(=O)oc2c1 [Coumarin-7]
- Crossover (MPa) (SC-CO2, 9–33 MPa, 308–338 K): 13–16 MPa
- Mole fraction (y) (SC-CO2, 9–33 MPa, 308–338 K): 4.15 × 10^−6 to 1.00 × 10^−5

SMILES: CN1CCC(=C2c3ccccc3C=Cc3ccccc32)CC1 [Cyproheptadine]
- Crossover (MPa) (SC-CO2, 16–40 MPa, 308–338 K): 20 MPa
- Mole fraction (y) (SC-CO2, 16–40 MPa, 308–338 K): 3.35 × 10^−5 to 3.09 × 10^−3

SMILES: CC(=O)OCC(=O)[C@H]1CC[C@H]2[C@@H]3CCC4=CC(=O)CC[C@]4(C)[C@H]3CC[C@]12C [Desoxycorticosterone acetate]
- Crossover (MPa) [6]: 24.5 MPa
- Mole fraction (y) [6]: 5 × 10^−6 to 1.03 × 10^−4

SMILES: O=C(O)c1cc(-c2ccc(F)cc2F)ccc1O [Diflunisal, 5-(2,4-difluorophenyl)− 2-hydroxybenzoic acid]
- Crossover (MPa) [7]: 15 MPa
- Mole fraction (y) [7]: 0.54 × 10^-6 to 8.07 × 10^-6

SMILES: CC[C@H]1OC(=O)[C@H](C)[C@@H](O[C@H]2C[C@@](C)(OC)[C@@H](O)[C@H](C)O2)[C@H](C)[C@@H](O[C@@H]2O[C@H](C)C[C@H](N(C)C)[C@H]2O)[C@](C)(O)C[C@@H](C)C(=O)[C@H](C)[C@@H](O)[C@]1(C)O [Erythromycin]
- Crossover (MPa) [4]: 16.8–17 MPa
- Mole fraction (y) [4]: 4.3 × 10^−5 to 3.12 × 10^−4

SMILES: COc1ccc2nc([S@@+]([O-])Cc3ncc(C)c(OC)c3C)[nH]c2c1 [Esomeprazole]
- Crossover (MPa) [8]: 22 MPa
- Mole fraction (y) [8]: 1.11 × 10^-5 to 9.10 × 10^-4

SMILES: CC(C(=O)O)c1cccc(Oc2ccccc2)c1 (stereo not drawn) [Fenoprofen]
- Crossover (MPa) (SC-CO2, 12–40 MPa, 308–338 K): 16 MPa
- Mole fraction (y) (SC-CO2, 12–40 MPa, 308–338 K): 2.01 × 10^−5 to 4.20 × 10^−3

SMILES: CC(C(=O)O)c1ccc(-c2ccccc2)c(F)c1 (stereo not drawn) [Flurbiprofen]
- Crossover (MPa) (SC-CO2, 8–25 MPa, 303–323 K): 12 MPa
- Mole fraction (y) (SC-CO2, 8–25 MPa, 303–323 K): 2.170 × 10^-5 to 19.683 × 10^-5

SMILES: CC(C)n1c(/C=C/C(O)CC(O)CC(=O)O)c(-c2ccc(F)cc2)c2ccccc21 (stereo not drawn) [Fluvastatin]
- Crossover (MPa) [3]: 17 MPa
- Mole fraction (y) [3]: 5 × 10^−6 to 6 × 10^−4

SMILES: Cc1ccc(NC(=O)c2ccc(CN3CCN(C)CC3)cc2)cc1Nc1nccc(-c2cccnc2)n1 [Imatinib mesylate]
- Crossover (MPa) [8]: 18–21 MPa
- Mole fraction (y) [8]: 1.0 × 10^−7 to 4.4 × 10^−6

SMILES: CC(C)(O)C(=O)c1ccc(OCCO)cc1 [Irgacure® 2959, 2-Hydroxy-4'-(2-hydroxyethoxy)− 2-methylpropiophenone]
- Crossover (MPa) [9]: 14 MPa
- Mole fraction (y) [9]: 5.17 × 10^−6 to 2.83 × 10^−4

SMILES: O=C1C=CC(=O)c2c(O)cccc21 [Juglone, 5-hydroxy-1,4-naphthoquinone]
- Crossover (MPa) [10]: 21–22 MPa
- Mole fraction (y) [10]: 2.0 × 10^−5 to 1.6 × 10^−3

SMILES: CN1CCC(=C2c3ccccc3CC(=O)c3sccc32)CC1 [Ketotifen fumarate]
- Crossover (MPa) [11]: 20 MPa
- Mole fraction (y) [11]: 2.11 × 10^−5 to 1.07 × 10^−3

SMILES: CCOC(=O)N1CCC(=C2c3ccc(Cl)cc3CCc3cccnc32)CC1 [Loratadine]
- Crossover (MPa) [12]: 18–21 MPa
- Mole fraction (y) [12]: 4.50 × 10^−6 to 1.30 × 10^−3

SMILES: CC[C@H](C)C(=O)O[C@H]1C[C@@H](C)C=C2C=C[C@H](C)[C@H](CC[C@@H]3C[C@@H](O)CC(=O)O3)[C@H]21 [Lovastatin]
- Crossover (MPa) [3]: 17 MPa

SMILES: CC(C(=O)O)c1ccc(CC2CCCC2=O)cc1 (stereo not drawn) [Loxoprofen]
- Crossover (MPa) (SC-CO2, 12–40 MPa, 308–338 K): 20 MPa
- Mole fraction (y) (SC-CO2, 12–40 MPa, 308–338 K): 1.04 × 10^−5 to 1.28 × 10^−3

SMILES: Cc1cnc(NC(=O)C2=C(O)c3ccccc3S(=O)(=O)N2C)s1 [Meloxicam sodium]
- Crossover (MPa) [13]: 15–17 MPa
- Mole fraction (y) [13]: 4.41 × 10^−6 to 12.76 × 10^−6

SMILES: CCn1cc(C(=O)O)c(=O)c2cc(F)c(N3CCNCC3)cc21 [Norfloxacin]
- Mole fraction (y) [14]: 1.4 × 10^−6 to 24.4 × 10^−6

SMILES: CC1COc2c(N3CCN(C)CC3)c(F)cc3c(=O)c(C(=O)O)cn1c23 (stereo not drawn) [Ofloxacin]
- Mole fraction (y) [14]: 0.4 × 10^−6 to 1.3 × 10^−6

SMILES: C[C@]12C/C(=C/O)C(=O)C[C@@H]1CC[C@@H]1[C@@H]2CC[C@@]2(C)[C@H]1CC[C@]2(C)O [Oxymetholone]
- Crossover (MPa) [5]: 18 MPa
- Mole fraction (y) [5]: 1.6 × 10^−5 to 1.49 × 10^−4

SMILES: CC(C)c1nc(N(C)S(C)(=O)=O)nc(-c2ccc(F)cc2)c1/C=C/[C@@H](O)C[C@@H](O)CC(=O)O [Rosuvastatin]
- Crossover (MPa) [3]: 17 MPa
- Mole fraction (y) [3]: 3 × 10^−6 to 2.44 × 10^−4

SMILES: CCC(C)(C)C(=O)O[C@H]1C[C@@H](C)C=C2C=C[C@H](C)[C@H](CC[C@@H]3C[C@@H](O)CC(=O)O3)[C@H]21 [Simvastatin]
- Crossover (MPa) [3]: 17 MPa
- Mole fraction (y) [3]: 2 × 10^−6 to 5.35 × 10^−4

SMILES: CNC(=O)c1cc(Oc2ccc(NC(=O)Nc3ccc(Cl)c(C(F)(F)F)c3)cc2)ccn1 [Sorafenib tosylate]
- Mole fraction (y) (SC-CO2, 12–27 MPa, 308–338 K): 0.68 × 10^−6 to 12.57 × 10^−6

SMILES: CCN(CC)CCNC(=O)c1c(C)[nH]c(/C=C2\C(=O)Nc3ccc(F)cc32)c1C [Sunitinib malate]
- Mole fraction (y) (SC-CO2, 12–27 MPa, 308–338 K): 0.5 × 10^−5 to 8.56 × 10^−5

SMILES: Cc1ccc(C(=O)c2ccc(CC(=O)O)n2C)cc1 [Tolmetin]
- Crossover (MPa) (SC-CO2, 12–40 MPa, 308–338 K): 16 MPa
- Mole fraction (y) (SC-CO2, 12–40 MPa, 308–338 K): 5.00 × 10^−5 to 2.59 × 10^−3

SMILES: Nc1nc(N)c2nc(-c3ccccc3)c(N)nc2n1 [Triamterene, 2,4,7-Triamino-6-phenylpteridine]
- Crossover (MPa) (SC-CO2, 12–27 MPa, 308–338 K): 19.2–19.5 MPa
- Mole fraction (y) (SC-CO2, 12–27 MPa, 308–338 K): 0.03 × 10^−5 to 2.89 × 10^−5
